Key:
[1] = target: T1, Bromodomain-containing protein 4 (Homo sapiens, UniProt O60885); assay: Inhibition of poly His-tagged BRD4 BD2 (unknown origin) (348 to 455 residues) by BROMOscan assay
[2] = target: T1, Bromodomain-containing protein 4; assay: Inhibition of poly His-tagged BRD4 BD1 (unknown origin) ([…] residues) by BROMOscan assay
[3] = target: Poly [ADP-ribose] polymerase 1 (Homo sapiens) (UniProt P09874); assay: Inhibition of PARP1 (unknown origin) using NAD+ as substrate incubated for 60 mins by ELISA
Sequence of Poly [ADP-ribose] polymerase 1 (Homo sapiens) (P09874 whole entry): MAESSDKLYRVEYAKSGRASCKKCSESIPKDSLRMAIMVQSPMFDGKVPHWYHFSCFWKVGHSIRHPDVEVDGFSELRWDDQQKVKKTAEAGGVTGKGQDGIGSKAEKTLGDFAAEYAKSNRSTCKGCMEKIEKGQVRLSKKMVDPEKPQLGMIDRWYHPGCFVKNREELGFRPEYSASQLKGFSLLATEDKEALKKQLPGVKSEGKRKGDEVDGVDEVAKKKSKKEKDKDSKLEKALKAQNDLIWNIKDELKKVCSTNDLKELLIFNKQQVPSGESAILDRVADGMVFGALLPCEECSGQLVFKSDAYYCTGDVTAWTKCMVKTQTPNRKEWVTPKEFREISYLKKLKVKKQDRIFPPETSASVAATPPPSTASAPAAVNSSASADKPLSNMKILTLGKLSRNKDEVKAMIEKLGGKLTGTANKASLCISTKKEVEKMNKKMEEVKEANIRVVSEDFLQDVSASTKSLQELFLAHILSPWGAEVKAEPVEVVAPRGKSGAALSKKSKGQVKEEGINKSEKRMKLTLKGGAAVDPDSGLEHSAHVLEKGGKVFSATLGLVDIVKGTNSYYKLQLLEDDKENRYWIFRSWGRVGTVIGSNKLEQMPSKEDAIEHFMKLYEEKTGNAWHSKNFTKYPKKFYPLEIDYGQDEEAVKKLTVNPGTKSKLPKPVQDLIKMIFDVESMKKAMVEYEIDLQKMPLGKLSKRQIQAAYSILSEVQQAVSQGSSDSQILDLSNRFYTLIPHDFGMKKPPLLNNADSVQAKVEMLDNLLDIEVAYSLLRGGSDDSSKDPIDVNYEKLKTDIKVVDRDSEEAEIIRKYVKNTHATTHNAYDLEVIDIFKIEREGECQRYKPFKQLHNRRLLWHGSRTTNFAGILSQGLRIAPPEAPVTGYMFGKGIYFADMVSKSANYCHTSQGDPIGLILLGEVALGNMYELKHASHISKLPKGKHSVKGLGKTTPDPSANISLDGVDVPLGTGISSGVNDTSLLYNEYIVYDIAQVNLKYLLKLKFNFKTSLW

[4] = target: T1, Bromodomain-containing protein 4; assay: Inhibition of recombinant human BRD4 BD2 measured after 2 hrs by TR-FRET assay
[5] = target: T1, Bromodomain-containing protein 4; assay: Inhibition of recombinant human BRD4 BD1 measured after 2 hrs by TR-FRET assay
Homo sapiens = species: Homo sapiens; assay: Selectivity for BRD4 BD1 (unknown origin) over BRD4 BD2 (unknown origin) assessed as fold change
[6] = target: Protein cereblon/Bromodomain-containing protein 4 (Homo sapiens, UniProt O60885+Q96SW2); assay: Protac activity at CRBN/BRD4 in human SUM149PT assessed as induction of BRD4 degradation incubated for 18 hrs by immunoblot analysis; format: cell-based
Sequence of Protein cereblon/Bromodomain-containing protein 4 (Q96SW2 whole entry, looked up, other chains not shown): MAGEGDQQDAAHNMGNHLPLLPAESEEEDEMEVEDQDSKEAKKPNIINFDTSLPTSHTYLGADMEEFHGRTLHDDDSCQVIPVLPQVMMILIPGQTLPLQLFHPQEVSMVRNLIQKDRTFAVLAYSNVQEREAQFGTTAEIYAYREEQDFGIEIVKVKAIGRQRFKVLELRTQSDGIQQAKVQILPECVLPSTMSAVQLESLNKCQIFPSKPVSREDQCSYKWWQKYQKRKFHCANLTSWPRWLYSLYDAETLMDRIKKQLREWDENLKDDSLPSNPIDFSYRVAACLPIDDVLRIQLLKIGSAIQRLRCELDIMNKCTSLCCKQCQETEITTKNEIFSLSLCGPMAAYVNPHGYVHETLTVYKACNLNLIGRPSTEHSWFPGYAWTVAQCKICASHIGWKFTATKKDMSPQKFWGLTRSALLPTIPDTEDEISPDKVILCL

[7] = target: T1, Bromodomain-containing protein 4; assay: Inhibition of poly His-tagged BRD4 BD1 (unknown origin) ([…] residues) by TR-FRET assay
[8] = target: T1, Bromodomain-containing protein 4; assay: Inhibition of poly His-tagged BRD4 BD2 (unknown origin) (348 to 455 residues) by TR-FRET assay
[9] = Antiproliferative activity against human Triple-negative breast cancer cells assessed as cell growth inhibition incubated for 4 days by CellTiter Glo assay; format: functional, cell-based; details: 96 h
[10] = target: T1, Bromodomain-containing protein 4; assay: Inhibition of GST-tagged BRD4 BD1 (unknown origin) using H4(1 to 21 residues) biotinylated peptide as substrate at 10 uM incubated for 3 hrs by HTFR assay
Histone deacetylase 3 = Histone deacetylase 3 (Homo sapiens, UniProt O15379); assay: Inhibition of recombinant human HDAC3 using Boc-Lys(Ac)-AMC as substrate preincubated for 15 mins followed by substrate addition and measured after 60 mins by fluorescence based assay
Sequence of Histone deacetylase 3 (O15379 whole entry): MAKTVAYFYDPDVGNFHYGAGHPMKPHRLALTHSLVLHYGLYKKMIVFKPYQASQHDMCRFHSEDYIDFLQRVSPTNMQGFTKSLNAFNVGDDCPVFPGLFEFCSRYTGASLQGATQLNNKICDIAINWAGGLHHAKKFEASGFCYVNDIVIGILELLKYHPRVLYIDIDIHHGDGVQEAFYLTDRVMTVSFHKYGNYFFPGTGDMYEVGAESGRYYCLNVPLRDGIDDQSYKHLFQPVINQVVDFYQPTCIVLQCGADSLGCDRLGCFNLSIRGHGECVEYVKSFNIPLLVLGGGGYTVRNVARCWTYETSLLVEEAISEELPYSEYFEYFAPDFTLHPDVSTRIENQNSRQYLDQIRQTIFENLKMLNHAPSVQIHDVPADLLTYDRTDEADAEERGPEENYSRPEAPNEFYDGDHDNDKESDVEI

[11] = target: von Hippel-Lindau disease tumor suppressor/Bromodomain-containing protein 4 (Homo sapiens, UniProt O60885+P40337); assay: Protac activity at BRD4/VHL E3 ligase in human SU-DHL-4 cells assessed as induction of BRD4 degradation incubated for 14 hrs by immunoblot analysis; format: cell-based
Sequence of von Hippel-Lindau disease tumor suppressor/Bromodomain-containing protein 4 (P40337 whole entry, looked up, other chains not shown): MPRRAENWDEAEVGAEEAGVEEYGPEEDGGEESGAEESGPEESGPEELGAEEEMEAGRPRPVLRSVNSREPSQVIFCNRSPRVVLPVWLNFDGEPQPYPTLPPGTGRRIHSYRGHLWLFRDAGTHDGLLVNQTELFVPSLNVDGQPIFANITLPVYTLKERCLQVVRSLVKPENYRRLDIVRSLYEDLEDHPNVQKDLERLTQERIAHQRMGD

[12] = target: T1, Bromodomain-containing protein 4; assay: Binding affinity to BRD4 BD1 (unknown origin) assessed as dissociation constant by ITC analysis
[13] = target: T1, Bromodomain-containing protein 4; assay: Binding affinity to BRD4 BD2 (unknown origin) assessed as dissociation constant by ITC analysis

Structure (SMILES): COC(=O)c1ccc(N[C@@H]2C[C@H](C)N(C(C)=O)c3ccc(-c4cccc(NC(C)=O)c4)cc32)cc1
- IC50 [1]: 0.42 nM
- IC50 [2]: 27 nM

Structure (SMILES): COc1cc(OC)c2c(=O)[nH]c(-c3ccc(OCCOc4ccccc4C(N)=O)cc3)nc2c1
- inhibition [3]: < 60%
- IC50 [4]: 379 nM
- IC50 [5]: 440 nM

Structure (SMILES): CC(=O)Nc1c(F)cc(C(=O)N[C@H]2CC[C@H](O)CC2)cc1O[C@@H](C)c1ccccc1
- Selectivity ratio (Homo sapiens): > 300

Structure (SMILES): Cc1sc2c(c1C)C(c1ccc(Cl)cc1)=N[C@@H](CC(=O)NCCCCNC(=O)COc1cccc3c1C(=O)N(C1CCC(=O)NC1=O)C3O)c1nnc(C)n1-2 (some centres not stated)
- EC50 [6]: 430 nM

Structure (SMILES): CC(=O)N1c2ccc(-c3cc[nH]n3)cc2[C@H](Nc2ccc(C#N)cc2)C[C@@H]1C
- Kd [7]: 301 nM
- Kd [8]: 2 nM

Structure (SMILES): CCn1nc(C2CC2)cc1Nc1nc(C(=O)NCCCOCCOCCOCCCNc2cccc3c2C(=O)N(C2CCC(=O)NC2=O)C3=O)nc2[nH]c3cc(-c4c(C)noc4C)c(OC)cc3c12 (configuration not stated)
- IC50 [9]: < 10 nM

Structure (SMILES): Cc1noc(C)c1-c1ccc2c(c1)C(Cc1ccc(F)cc1)CN2CCCCCCC(=O)NO (configuration not stated)
- inhibition [10]: 88%
- IC50 (Histone deacetylase 3): 5 nM

Structure (SMILES): Cc1sc2c(c1C)C(c1ccc(Cl)cc1)=N[C@@H](CC(=O)NCCOCCOCCNC(=O)c1cccc(S(=O)(=O)Nc3ccc(C)c4c(C#N)c[nH]c34)c1)c1nnc(C)n1-2
- DC50 [11]: 10800 nM

Structure (SMILES): CC(=O)N[C@H](CSCCCCCCNC(=O)C[C@H]1N=C(c2ccc(Cl)cc2)c2c(sc(C)c2C)-n2c(C)nnc21)C(=O)N1C[C@@H](O)C[C@@H]1C(=O)NCc1ccc(-c2scnc2C)cc1
- Kd [12]: 44 nM

Structure (SMILES): COCc1nc2cnc3cc(-c4c(C)noc4C)c(OC[C@H]4CCNC4)cc3c2n1[C@H](C)c1ccccc1
- Selectivity ratio (Homo sapiens): > 130

Structure (SMILES): CC1=C(C)C2C(c3ccc(Cl)cc3)N[C@@](C)(CC(=O)NCCOCCOCCOCC(=O)N[C@H](C(=O)N3C[C@H](O)C[C@H]3C(=O)NCc3ccc(-c4scnc4C)cc3)C(C)(C)C)c3nnc(C)n3C2S1 (some centres not stated)
- Kd [13]: 120 nM
- Kd [12]: 382 nM
